Test results as given in US8663660B2, “Polymerized micelles” (Les Laboratories Servier, priority 2008, dated 2014).
In brackets after ≈: the same amount, converted by molar mass.

Experiments:
[1] = Critical micellar concentration; type: physicochemical
Protocol: “Self-assembly” of amphiphilic molecules is understood to be the spontaneous organisation, into spherical micelles, of amphiphilic molecules in aqueous media at a concentration greater than the critical micellar concentration or CMC.
The critical micellar concentration of the amphiphilic molecule II-4 as described hereinbefore was determined in experiments to be 0.082 mg/ml.

[2] = physchem; details: for Molar level of inclusion: polymerised micelles at 10 mg/ml, 50° C. 12 hours, molar ratio medicament/(medicament + amphiphilic II-4) × 100; for Level of inclusion by weight: polymerised micelles of amphiphilic II-4 at 10 mg/ml, stirring at 50° C. for 12 hours, weight ratio medicament/(medicament + transporter) × 100; for Number of molecules per micelle: polymerised micelles, molar ratio medicament/amphiphilic II-4 × 100 amphiphilics per micelle
Protocol: At the end of the inclusion sequence, the solution is filtered in order to remove the excess of non-included active ingredient.
The level of inclusion of S39625 is determined by the reverse-phase HPLC method. This technique is based on the difference in the interaction of molecules between the mobile phase and the stationary phase. This difference affects the retention times for those molecules. For given HPLC conditions, the same molecule always has the same retention time. The reverse-phase HPLC conditions for determination of the level of inclusion of S39625 are an RP-18^c grafted silica column for the stationary phase and a gradient of water and of acetonitrile from 5% to 100% for the mobile phase. Detection of the S39625 at the column exit is carried out by a UV detector at a wavelength of 385 nm. A standard curve for S39625 in acetonitrile was produced by reverse HPLC.

[3] = Solubility of the active ingredient molecule in water; type: physicochemical; details: free molecule, without micelles

| Structure (SMILES) | Critical micellar concentration [1] [mg/mL] | solubility at 12 h ([2]; 50 °C, aqueous with cosolvent or surfactant or cyclodextrin, thermodynamic from solid) [µg/mL] | Molar level of inclusion [2] [%] | Level of inclusion by weight [2] [%] | Level of inclusion by weight ([2]; listed as paclitaxel) [%] | Number of molecules per micelle [2] | Solubility in water [2] [mg/mL] | Solubility of the molecule in water [3] [µg/mL] |
| --- | --- | --- | --- | --- | --- | --- | --- | --- |
| CCCC#CC#CCCC(=O)NCCCCC(C(=O)O)N(CC(=O)O)CC(=O)O (stereo not shown) [II-4] | 0.082 | – | – | – | – | – | – | – |
| CC(=O)O[C@H]1C(=O)[C@@]2(C)[C@H]([C@H](OC(=O)c3ccccc3)[C@]3(O)C[C@H](OC(=O)[C@H](O)[C@@H](NC(=O)c4ccccc4)c4ccccc4)C(C)=C1C3(C)C)[C@]1(OC(C)=O)CO[C@@H]1C[C@@H]2O [Paclitaxel, paclitaxel, reference compound] | – | 4550 (≈ 5.33 mM) | 25 | 31 | 33 | 33 | – | – |
| c1cc2ccc3cccc4ccc(c1)c2c34 [Pyrene, pyrene, reference compound] | – | – | 63 | 34 | – | 167 | – | – |
| CCC1(O)C(=O)Cc2c1cc1n(c2=O)Cc2c-1nc1cc3c(cc1c2C1CCC1)OCO3 (stereo not shown) [S 39625] | – | – | 56 | 48 | – | 125 | 9.00 (≈ 20.9 mM) | 0.09 |
| CN(C)CC[C@H](CSc1ccccc1)Nc1ccc(S(=O)(=O)NC(=O)c2ccc3c(c2)CC[C@@H]2CN(Cc4ccccc4-c4ccc(Cl)cc4)CCN32)cc1[N+](=O)[O-] [S 44563] | – | – | 36 | 45 | – | 56 | 8.30 (≈ 9.89 mM) | 2.00 |
